# Measured values reported in ChEMBL document CHEMBL1268929, “Design, synthesis, and evaluation of an α-tocopherol analogue as a mitochondrial antioxidant” (2010).
# Calls of active or inactive are those of the source. The calls are words filed in the database; no cut-off is given here.
# Experiments:
# Bos taurus = species: Bos taurus; assay: Antioxidant activity against AAPH-induced lipid peroxidation in bovine heart mitochondrial membrane at 50 uM by spectrofluorimetric analysis; type: functional; conditions: Mitochondria
# CCRF-CEM = assay: Antioxidant activity against diethyl maleate-induced intracellular ROS accumulation in human CEM cells at 5 uM pretreated for 1 hr before diethyl maleate challenge measured after 30 mins by flow cytometry; type: functional
SMILES,Activity (Bos taurus),Activity (CCRF-CEM) [%]
Cc1nc2c(c(CC[C@](C)(O)CCC[C@H](C)CCC[C@H](C)CCCC(C)C)c1O)CCN2C,Active,2
Cc1c(C)c2c(c(C)c1O)CC[C@@](C)(CCC[C@H](C)CCC[C@H](C)CCCC(C)C)O2 [ALPHA-TOCOPHEROL],–,65
Cc1nc2c(c(C)c1O)CCN2C,–,75
